Reference: ChEMBL document CHEMBL5214900, “Design, Synthesis, and Biological Evaluation of Membrane-Active Bakuchiol Derivatives as Effective Broad-Spectrum Antibacterial Agents” (J Med Chem, 2021)
≈ marks a conversion by molar mass, not a printed value. Calls of active or inactive are those of the source. No cut-off for these calls is given here.

Key:
Escherichia coli [1] = experiment: Antibiofilm activity against Escherichia coli ATCC 25922 assessed reduction in biofilm formation at 0.39 ug/ml measured after 24 hrs by crystal violet staining based assay relative to control; assay type: functional; design: scale not given: the % may be the effect or the level left; conditions: dose 0.39 µg/ml
[2] = Cytotoxicity against mouse NCTC clone 929 cells assessed as cell viability at 50 ug/ml incubated for 24 hrs by CCK-8 assay relative to control; assay type: toxicity, cell-based; conditions: at 50 µg/mL, read-out: Activity
[3] = Cytotoxicity against mouse NCTC clone 929 cells assessed as cell viability at 25 ug/ml incubated for 24 hrs by CCK-8 assay relative to control; assay type: toxicity, cell-based; conditions: at 25 µg/mL, read-out: Activity
[4] = Cytotoxicity against mouse NCTC clone 929 cells assessed as cell viability at 6.25 ug/ml incubated for 24 hrs by CCK-8 assay relative to control; assay type: toxicity, cell-based; conditions: at 6.25 µg/mL, read-out: Activity
Escherichia coli [5] = experiment: Antibacterial activity against Escherichia coli ATCC 25922 assessed as inhibition of bacterial growth incubated for 24 hrs by CLSI based broth dilution method; assay type: functional
Lipoteichoic acid [6] = experiment: Displacement of BODIPY-TR-cadaverine from Bacillus subtilis Lipoteichoic acid at 8 times MIC measured for 30 mins by fluorescence based microplate reader assay relative to control
Escherichia coli [7] = experiment: Antibacterial activity against Escherichia coli ATCC 25922 assessed as fold increase in MIC incubated for 24 hrs in presence of 140 mM Na+ by CLSI based broth dilution method; assay type: functional
Cell membrane [8] = experiment: Disruption of membrane integrity in Staphylococcus aureus ATCC 29213 assessed as increase in red fluorescence intensity at 8 times MIC incubated for 2 hrs by SYTO 9/PI staining based fluorescence analysis; assay type: subcellular
[9] = Cytotoxicity against HEK293 cells assessed as cell viability at 3.125 ug/ml incubated for 24 hrs by CCK-8 assay relative to control; assay type: toxicity, cell-based; conditions: human, at 3.125 µg/mL, read-out: Activity
[10] = Cytotoxicity against HEK293 cells assessed as cell viability at 25 ug/ml incubated for 24 hrs by CCK-8 assay relative to control; assay type: toxicity, cell-based; conditions: human, at 25 µg/mL, read-out: Activity
Klebsiella pneumoniae = experiment: Antibacterial activity against Klebsiella pneumoniae ATCC 14581 assessed as inhibition of bacterial growth incubated for 24 hrs by CLSI based broth dilution method; assay type: functional
Escherichia coli [11] = experiment: Antibacterial activity against Escherichia coli ATCC 25922 assessed as eradication of preformed bacterial biofilm by measuring residual biofilm viability at 6.25 ug/ml incubated for 24 hrs by crystal violet staining based assay relative to control; assay type: functional; conditions: dose 6.25 µg/ml
Escherichia coli [12] = experiment: Antibiofilm activity against Escherichia coli ATCC 25922 assessed reduction in biofilm formation at 3.125 ug/ml measured after 24 hrs by crystal violet staining based assay relative to control; assay type: functional; design: scale not given: the % may be the effect or the level left; conditions: dose 3.125 µg/ml
Staphylococcus aureus [13] = experiment: Antibacterial activity against Staphylococcus aureus NCTC10442 assessed as fold increase in MIC incubated for 24 hrs in presence of 4.5 mM K+ by CLSI based broth dilution method; assay type: functional
[14] = Toxicity in C57BL/6 mouse assessed as corneal damage at 0.8 mg/ml, TOP administered 4 times a day for 3 consecutive days; conditions: in vivo, topical_or_ocular, 72 h, time 3 day
[15] = Cytotoxicity against HEK293 cells assessed as cell viability at 50 ug/ml incubated for 24 hrs by CCK-8 assay relative to control; assay type: toxicity, cell-based; conditions: human, at 50 µg/mL, read-out: Activity
Staphylococcus aureus [16] = experiment: Antibiofilm activity against Staphylococcus aureus ATCC 29213 assessed reduction in biofilm formation at 0.39 ug/ml measured after 24 hrs by crystal violet staining based assay relative to control; assay type: functional; design: scale not given: the % may be the effect or the level left; conditions: dose 0.39 µg/ml
[17] = Cytotoxicity against mouse NCTC clone 929 cells assessed as cell viability at 3.125 ug/ml incubated for 24 hrs by CCK-8 assay relative to control; assay type: toxicity, cell-based; conditions: at 3.125 µg/mL, read-out: Activity
Acinetobacter baumannii [18] = experiment: Antibacterial activity against Acinetobacter baumannii ATCC 17978 assessed as fold increase in MIC incubated for 24 hrs in presence of 2.5 mM Ca2+ by CLSI based broth dilution method; assay type: functional
Staphylococcus aureus [19] = experiment: Antibacterial activity against methicillin-resistant Staphylococcus aureus N315 assessed as inhibition of bacterial growth incubated for 24 hrs by CLSI based broth dilution method; assay type: functional
Staphylococcus aureus [20] = experiment: Antibacterial activity against Staphylococcus aureus ATCC 29213 assessed as fold increase in MIC incubated for 24 hrs in presence of 1 mM Mg2+ by CLSI based broth dilution method; assay type: functional
Staphylococcus aureus [21] = experiment: Induction of cell death in Staphylococcus aureus ATCC 29213 assessed as residual living cells at 8 times MIC incubated for 2 hrs by SYTO 9/PI staining based fluorescence analysis relative to control; assay type: functional
Escherichia coli [22] = experiment: Induction of drug resistance in Escherichia coli ATCC 25922 assessed as fold change in MIC measured after 19 passages by CLSI based broth dilution method; assay type: functional
Staphylococcus aureus [23] = experiment: Antibiofilm activity against Staphylococcus aureus ATCC 29213 assessed reduction in biofilm formation at 6.25 ug/ml measured after 24 hrs by crystal violet staining based assay relative to control; assay type: functional; design: scale not given: the % may be the effect or the level left; conditions: dose 6.25 µg/ml
Lipopolysaccharide (LPS) = experiment: Displacement of BODIPY-TR-cadaverine from Escherichia coli Lipopolysaccharide at 1 times MIC measured for 30 mins by fluorescence based microplate reader assay relative to control
Lipoteichoic acid [24] = experiment: Displacement of BODIPY-TR-cadaverine from Bacillus subtilis Lipoteichoic acid at 1 times MIC measured for 30 mins by fluorescence based microplate reader assay relative to control
Acinetobacter baumannii [25] = experiment: Antibacterial activity against Acinetobacter baumannii ATCC 17978 assessed as fold increase in MIC incubated for 24 hrs in presence of 1 mM Mg2+ by CLSI based broth dilution method; assay type: functional
Staphylococcus aureus [26] = experiment: Antibacterial activity against Staphylococcus aureus NCTC10442 assessed as fold increase in MIC incubated for 24 hrs in presence of 1 mM Mg2+ by CLSI based broth dilution method; assay type: functional
Staphylococcus aureus [27] = experiment: Bactericidal activity against Staphylococcus aureus ATCC 29213 assessed as log reduction in viable bacteria at 8 times MIC measured after 8 hrs by time-killing assay; assay type: functional
[28] = Cytotoxicity against HEK293 cells assessed as cell viability at 12.5 ug/ml incubated for 24 hrs by CCK-8 assay relative to control; assay type: toxicity, cell-based; conditions: human, at 12.5 µg/mL, read-out: Activity
Escherichia coli [29] = experiment: Antibacterial activity against Escherichia coli ATCC 25922 assessed as eradication of preformed bacterial biofilm by measuring residual biofilm viability at […] ug/ml incubated for 24 hrs by crystal violet staining based assay relative to control; assay type: functional; conditions: dose […] microg/ml, 1.56 ug/mL
Staphylococcus aureus [30] = experiment: Antibacterial activity against Staphylococcus aureus ATCC 29213 assessed as eradication of preformed bacterial biofilm by measuring residual biofilm viability at 0.78 ug/ml incubated for 24 hrs by crystal violet staining based assay relative to control; assay type: functional; conditions: dose 0.78 µg/ml
Cell membrane [31] = experiment: Disruption of membrane integrity in Staphylococcus aureus ATCC 29213 assessed as increase in fluorescence intensity at 1 to 8 times MIC by SYTOX green dye based fluorescence analysis; conditions: DDE = dose-dependent effect
[32] = Hemolytic activity in rabbit RBC measured after 1 hrs by multimode reader assay; assay type: toxicity, cell-based, Oryctolagus cuniculus, Erythrocyte; conditions: rabbit red blood cells (erythrocytes)

Compound: C=C[C@@](C)(/C=C/c1ccc(OCCCCN(CCCN(C)C)CCCN(C)C)cc1)CCC=C(C)C
- Activity (Escherichia coli [1]): 4.04%
- viability at 24 h, 50 ug/ml [2]: 36%
- viability at 24 h, 25 ug/ml [3]: 74.1%
- viability at 24 h, 6.25 ug/ml [4]: 84.9%
- MIC (Escherichia coli [5]): 3.12 µg/mL (≈ 6.28 µM)
- Activity (Lipoteichoic acid [6]): 57.9%
- fold change (FC) (Escherichia coli [7]): <2
- Activity (Cell membrane [8]): Active
- viability at 24 h, 3.125 ug/ml [9]: 94.1%
- viability at 24 h, 25 ug/ml [10]: 63.3%
- MIC (Klebsiella pneumoniae): 3.12 µg/mL (≈ 6.28 µM)
- Activity (Escherichia coli [11]): 22.69%
- Activity (Escherichia coli [12]): 92.62%
- fold change (FC) (Staphylococcus aureus [13]): <2
- Activity [14]: Non-Toxic
- viability at 24 h, 50 ug/ml [15]: 14.4%
- Activity (Staphylococcus aureus [16]): 1.65%
- viability at 24 h, 3.125 ug/ml [17]: 88.9%
- fold change (FC) (Acinetobacter baumannii [18]): <2
- MIC (Staphylococcus aureus [19]): 1.56 µg/mL (≈ 3.13 µM)
- fold change (FC) (Staphylococcus aureus [20]): <2
- Activity (Staphylococcus aureus [21]): 2.2%
- fold change (FC) (Escherichia coli [22]): < 4
- Activity (Staphylococcus aureus [23]): 98.78%
- Activity (Lipopolysaccharide (LPS)): 36.9%
- Activity (Lipoteichoic acid [24]): 25.4%
- fold change (FC) (Acinetobacter baumannii [25]): <2
- fold change (FC) (Staphylococcus aureus [26]): <2
- log(activity) (Staphylococcus aureus [27]): 3.52
- viability at 24 h, 12.5 ug/ml [28]: 84.9%
- Activity (Escherichia coli [29]): 69.09%
- Activity (Staphylococcus aureus [30]): 88.63%
- Activity (Cell membrane [31]): Dde
- HC50 at 1 h [32]: 113 µg/mL
